Here are results for two compounds from patent publication US7112608B2, “Hydroxyphenylundecane, a process for their production and their use” (Sanofi-Aventis Deutschland GmbH, priority 2002, dated 2006).

One data set addresses T1, JNK3 (Homo sapiens, UniProt P53779).
T1 construct: Biotech, Vitry
Description: JNK3 Assay (HTRF, JNK-3/GST-ATF2). The class given is biochemical. To be noted: JNK3 kinase, GST-ATF2 substrate, 15 μM ATP solution, 20 min at 37° C. On the procedure: The assay was performed on a Cybio pipetting system in the 384-well plate format. The final assay volume was 30 μl, comprising 10 μl of a probe (an extract or a pure substance-to-be-tested), 10 μl of an enzym-subtrate mixture (JNK-3/GST-ATF2) and 10 μl ATP solution. After 20 min incubation at 37° C. 50 μl HTRF abtibody mixture (XL665-anti-GST/(Eu)cryptat anti-P-ATF2) were added. The emission intensity of the energy transfer and of Eu at 665 and 615 nm, resp., were measured after 120 min at room temperature and stimulation of the probes at 340 nm in a Victor2® (Wallac).
Buffer I for diluting JNK3, GST-ATF2, ATP:
Buffer II for diluting HTRF reagents:
Each plate included 16 positiv controls (maximum energy transfer, buffer I instead of probe), 8 blank controls (minimal energy transfer, buffer 11 instead of ATP) and 8 wells containing a 200 μM EDTA solution.
The results were calculated as follows:
Signal Ration: SR=(intensity(665 nm)/intensity(615 nm)) Blank Correction: Delta F(%)=[…] Inhibition: Inhibition (%)=100×[1−(Delta F(Probe)/Delta F(max))
Background: TR-FRET usually uses a lanthanide donor and a delayed reading to cut background.

A short description of data set [1]: Physico chemical properties: solubility. The class given is physicochemical. The following applies: solvents in which the compound is soluble.

Molecules are shown by their SMILES.

T1 sequence (P53779 whole entry): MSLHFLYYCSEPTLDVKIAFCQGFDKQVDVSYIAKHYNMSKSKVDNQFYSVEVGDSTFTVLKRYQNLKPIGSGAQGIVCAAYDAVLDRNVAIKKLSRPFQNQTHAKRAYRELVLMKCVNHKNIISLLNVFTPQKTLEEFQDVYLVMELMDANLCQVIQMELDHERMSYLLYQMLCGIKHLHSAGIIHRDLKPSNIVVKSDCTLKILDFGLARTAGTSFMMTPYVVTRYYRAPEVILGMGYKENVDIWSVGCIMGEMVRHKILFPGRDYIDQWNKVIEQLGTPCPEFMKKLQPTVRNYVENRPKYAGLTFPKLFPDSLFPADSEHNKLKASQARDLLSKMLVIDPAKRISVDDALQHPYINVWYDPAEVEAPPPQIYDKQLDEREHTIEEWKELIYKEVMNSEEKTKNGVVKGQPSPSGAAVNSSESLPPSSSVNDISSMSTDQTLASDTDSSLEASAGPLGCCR

One may read the IC50 as the concentration that gives 50% inhibition. Lower therefore signals higher potency. For the compound `CCCCCCCCCCCc1cc(O)cc(O)c1C(=O)OC(CCC)CCCCCCCc1cc(OS(=O)(=O)O)cc(OS(=O)(=O)O)c1` (stereo not drawn) [Spinosulfate A], the IC50 against JNK3 was found to be 0.5 µM. Besides, the Solubility entry in data set [1] is given as “Methanol, DMSO”.

Compound `CCCCCCCCCCCc1cc(O)cc(O)c1C(=O)OC(CCC)CCCCCCCc1cc(O)cc(O)c1` (stereo not drawn) [Spinosulfate B] yielded an IC50 against JNK3 of 10 µM.
